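Test compounds were applied to cells in 96-well plates for 48 hours at 5 doses. At the GI50, growth is halved.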 The source made the active and inactive calls. Rule as the data show it: active = GI50 up to about 1.1 µM and inactive = higher.
What was measured:
Experiment in all cases: inhibition of tumour cell growth, NCI panel, 48 h
CAKI-1 = test system: CAKI-1
HCC 2998 = test system: HCC 2998
K562 = test system: K562
ACHN = test system: ACHN
UACC-257 = test system: UACC-257
DU-145 = test system: DU-145
HOP-62 = test system: HOP-62
M14 = test system: M14
U-251 = test system: U-251
SF-539 = test system: SF-539
IGROV-1 = test system: IGROV-1
OVCAR-4 = test system: OVCAR-4
HCT-15 = test system: HCT-15
786-0 = test system: 786-0
A498 = test system: A498
MOLT-4 = test system: MOLT-4
SR = test system: SR
SNB-75 = test system: SNB-75
OVCAR-8 = test system: OVCAR-8
SN12C = test system: SN12C
SW-620 = test system: SW-620
HCT-116 = test system: HCT-116
MCF7 = test system: MCF7
UACC-62 = test system: UACC-62
OVCAR-3 = test system: OVCAR-3
MDA-MB-435 = test system: MDA-MB-435
HT-29 = test system: HT-29
OVCAR-5 = test system: OVCAR-5
Hs-578T = test system: Hs-578T
NCI/ADR-RES = test system: NCI/ADR-RES
RXF 393 = test system: RXF 393
TK-10 = test system: TK-10
PC-3 = test system: PC-3
SK-OV-3 = test system: SK-OV-3
SK-MEL-2 = test system: SK-MEL-2
T47D = test system: T47D
UO-31 = test system: UO-31
BT-549 = test system: BT-549
EKVX = test system: EKVX
CCRF-CEM = test system: CCRF-CEM
SK-MEL-28 = test system: SK-MEL-28
LOX IMVI = test system: LOX IMVI
COLO 205 = test system: COLO 205
NCI-H460 = test system: NCI-H460
SF-295 = test system: SF-295
RPMI-8226 = test system: RPMI-8226
SF-268 = test system: SF-268
SNB-19 = test system: SNB-19
HL-60 = test system: HL-60
A549 = test system: A549
MDA-MB-231 = test system: MDA-MB-231
KM12 = test system: KM12
NCI-H522 = test system: NCI-H522
HOP-92 = test system: HOP-92
NCI-H226 = test system: NCI-H226
NCI-H23 = test system: NCI-H23
SK-MEL-5 = test system: SK-MEL-5
MDA-N = test system: MDA-N
Malme-3M = test system: Malme-3M

Measured: GI50

CC(C)=C1C(=O)C[C@]2(C)C[C@H]3O[C@]3(C)CC[C@@H]3O[C@@]3(C)CC[C@@H]12
inactive: CAKI-1 > 50 µM | HCC 2998 > 50 µM | K562 44.3 µM | ACHN > 50 µM | UACC-257 > 50 µM | DU-145 > 50 µM | HOP-62 > 50 µM | M14 > 50 µM | U-251 > 50 µM | SF-539 > 50 µM | IGROV-1 > 50 µM | OVCAR-4 > 50 µM | 786-0 > 50 µM | A498 > 50 µM | MOLT-4 > 50 µM | SR 34.5 µM | SNB-75 > 50 µM | OVCAR-8 > 50 µM | SN12C > 50 µM | SW-620 > 50 µM | HCT-116 > 50 µM | MCF7 > 50 µM | UACC-62 > 50 µM | OVCAR-3 > 50 µM | MDA-MB-435 > 50 µM | HT-29 > 50 µM | OVCAR-5 > 50 µM | Hs-578T > 50 µM | NCI/ADR-RES > 50 µM | RXF 393 > 50 µM | TK-10 > 50 µM | PC-3 > 50 µM | SK-OV-3 > 50 µM | SK-MEL-2 > 50 µM | T47D > 50 µM | UO-31 30.3 µM | BT-549 > 50 µM | EKVX > 50 µM | CCRF-CEM > 50 µM | SK-MEL-28 > 50 µM | LOX IMVI 17.5 µM | COLO 205 > 50 µM | NCI-H460 > 50 µM | SF-295 > 50 µM | RPMI-8226 > 50 µM | SF-268 > 50 µM | SNB-19 > 50 µM | HL-60 > 50 µM | A549 > 50 µM | MDA-MB-231 > 50 µM | KM12 > 50 µM | NCI-H522 34 µM | HOP-92 > 50 µM | NCI-H226 > 50 µM | NCI-H23 > 50 µM
> 50 µM: HCT-15

O=C(O)CSC(NC(=O)C(C(F)(F)F)C(F)(F)F)(C(F)(F)F)C(F)(F)F
inactive: CAKI-1 1.38 µM | HCC 2998 > 100 µM | K562 > 100 µM | ACHN > 100 µM | UACC-257 > 100 µM | M14 > 100 µM | U-251 > 100 µM | SF-539 > 100 µM | IGROV-1 > 100 µM | 786-0 > 100 µM | A498 71 µM | MOLT-4 > 100 µM | SR > 100 µM | SNB-75 > 100 µM | OVCAR-8 23.2 µM | SN12C > 100 µM | SW-620 > 100 µM | HCT-116 > 100 µM | MDA-MB-435 > 100 µM | HT-29 > 100 µM | OVCAR-5 > 100 µM | Hs-578T > 100 µM | NCI/ADR-RES > 100 µM | RXF 393 28.4 µM | TK-10 > 100 µM | SK-MEL-5 > 100 µM | PC-3 > 100 µM | SK-OV-3 > 100 µM | SK-MEL-2 > 100 µM | T47D > 100 µM | UO-31 > 100 µM | BT-549 > 100 µM | EKVX > 100 µM | CCRF-CEM > 100 µM | SK-MEL-28 > 100 µM | LOX IMVI > 100 µM | COLO 205 > 100 µM | MDA-N > 100 µM | RPMI-8226 > 100 µM | SF-268 > 100 µM | SNB-19 > 100 µM | HL-60 > 100 µM | A549 > 100 µM | NCI-H23 > 100 µM
> 100 µM: HCT-15

CCOC(=O)c1nc2ccccc2nc1Nc1ccc(Cl)c(Cl)c1
inactive: CAKI-1 24.5 µM | HCC 2998 > 100 µM | K562 76.7 µM | ACHN 76.7 µM | DU-145 > 100 µM | HOP-62 30.4 µM | M14 57.8 µM | U-251 23.7 µM | SF-539 60.5 µM | IGROV-1 32.5 µM | OVCAR-4 27.9 µM | 786-0 29.2 µM | MOLT-4 > 100 µM | SR > 100 µM | SNB-75 20.9 µM | OVCAR-8 29.9 µM | SN12C 81.5 µM | HCT-116 29 µM | MCF7 70 µM | UACC-62 25.6 µM | OVCAR-3 59.3 µM | MDA-MB-435 > 100 µM | HT-29 > 100 µM | OVCAR-5 > 100 µM | Hs-578T 34.4 µM | NCI/ADR-RES > 100 µM | TK-10 31.4 µM | SK-MEL-5 21.5 µM | SK-OV-3 27.7 µM | SK-MEL-2 89.7 µM | T47D 60.8 µM | UO-31 40.8 µM | BT-549 12.8 µM | EKVX 60.5 µM | CCRF-CEM > 10 µM | SK-MEL-28 > 100 µM | COLO 205 67.9 µM | NCI-H460 11 µM | Malme-3M 16.2 µM | MDA-N 68.1 µM | RPMI-8226 57.7 µM | SF-268 37.6 µM | SNB-19 27.2 µM | HL-60 30.8 µM | A549 59.4 µM | MDA-MB-231 > 100 µM | KM12 > 100 µM | NCI-H522 45.7 µM | HOP-92 16.8 µM | NCI-H23 33.7 µM
> 100 µM: HCT-15

— ChEMBL document CHEMBL1201862, “PubChem BioAssay data set” (2004)
